Assay results as given in ChEMBL document CHEMBL6120940, “Discovery of N-Aryl-N'-[4-(aryloxy)cyclohexyl]squaramide-Based Inhibitors of LXR/SREBP-1c Signaling Pathway Ameliorating Steatotic Liver Disease: Navigating the Role of SIRT6 Activation” (J Med Chem, 2024).

How the values were obtained:
[1] = Downregulation of SREBP-1c mRNA expression in human HepG2 cells at 10 uM pretreated with compound for 30 mins followed by T0901317 addition and measured after 12 hrs by RT-qPCR analysis relative to control; type: functional; settings: time 12.5 hrs
[2] = target: T1, Sterol regulatory element-binding protein 1 (Homo sapiens) (UniProt P36956); experiment: Inhibition of SREBP-1c transcriptional activity in human HepG2 cells expressing LXRalpha/RXRalpha assessed as reduction in SRE-luciferase level at 10 uM pretreated with compound for 30 mins followed by T0901317 addition and measured after 12 hrs by Dual-Glo luciferase assay relative to control; type: cell-based; settings: time 12.5 hrs
T1 sequence (whole entry): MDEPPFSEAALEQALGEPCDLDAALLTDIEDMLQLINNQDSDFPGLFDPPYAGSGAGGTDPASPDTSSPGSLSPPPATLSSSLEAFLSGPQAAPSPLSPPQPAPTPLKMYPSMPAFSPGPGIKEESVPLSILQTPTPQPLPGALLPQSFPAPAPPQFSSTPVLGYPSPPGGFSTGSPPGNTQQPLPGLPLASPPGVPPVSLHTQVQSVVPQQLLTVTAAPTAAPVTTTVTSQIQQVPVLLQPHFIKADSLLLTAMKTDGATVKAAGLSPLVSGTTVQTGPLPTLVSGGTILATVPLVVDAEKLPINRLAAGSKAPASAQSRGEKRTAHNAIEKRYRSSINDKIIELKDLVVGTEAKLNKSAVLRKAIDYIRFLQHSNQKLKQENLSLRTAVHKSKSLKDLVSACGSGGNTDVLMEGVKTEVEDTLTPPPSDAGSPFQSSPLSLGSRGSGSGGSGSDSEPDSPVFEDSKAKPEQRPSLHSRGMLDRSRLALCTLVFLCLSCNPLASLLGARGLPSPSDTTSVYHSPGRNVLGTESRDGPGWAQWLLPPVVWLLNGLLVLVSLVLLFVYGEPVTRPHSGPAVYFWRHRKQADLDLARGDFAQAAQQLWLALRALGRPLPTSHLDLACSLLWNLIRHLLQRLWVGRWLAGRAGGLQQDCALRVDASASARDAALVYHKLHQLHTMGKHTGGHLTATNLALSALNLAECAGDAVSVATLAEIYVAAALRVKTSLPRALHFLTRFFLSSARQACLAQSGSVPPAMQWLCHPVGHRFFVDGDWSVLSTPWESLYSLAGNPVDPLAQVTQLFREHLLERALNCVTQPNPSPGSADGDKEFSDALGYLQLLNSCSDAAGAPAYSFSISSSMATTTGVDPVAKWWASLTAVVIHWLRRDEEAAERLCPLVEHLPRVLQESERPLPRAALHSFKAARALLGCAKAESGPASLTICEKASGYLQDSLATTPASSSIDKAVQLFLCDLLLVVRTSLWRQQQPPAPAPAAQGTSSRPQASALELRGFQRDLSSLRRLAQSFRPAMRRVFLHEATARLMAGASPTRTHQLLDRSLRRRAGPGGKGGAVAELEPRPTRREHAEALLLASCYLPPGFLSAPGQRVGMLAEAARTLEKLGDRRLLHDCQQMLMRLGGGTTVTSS

HepG2 = experiment: Cytotoxicity against human HepG2 cells at 10 uM measured after 24 hrs by CCK-8 method relative to control; type: functional

CS(=O)(=O)c1ccc(O[C@H]2CC[C@H](Nc3c(Nc4ccc(Cl)cc4)c(=O)c3=O)CC2)cc1
Activity [1]: 47.9%
inhibition [2]: 107%
Activity (HepG2): 90.7%

COc1cccc(Nc2c(N[C@H]3CC[C@H](Oc4ccc(C(F)(F)F)cc4)CC3)c(=O)c2=O)c1
Activity [1]: 69.9%
inhibition [2]: 41.5%
Activity (HepG2): 97.4%

COc1cccc(Nc2c(N[C@H]3CC[C@H](Oc4ccc(C#N)cc4)CC3)c(=O)c2=O)c1
Activity [1]: 60.6%
inhibition [2]: 51.1%
Activity (HepG2): 91.4%

COc1ccccc1Nc1c(N[C@H]2CC[C@H](Oc3ccc(S(C)(=O)=O)cc3)CC2)c(=O)c1=O
Activity [1]: 34.4%
inhibition [2]: 22.2%
Activity (HepG2): 962%

O=C(Nc1ccc(Br)cc1)Nc1cccnc1
Activity [1]: 56.6%

CC(C)(C)c1ccc(Nc2c(N[C@H]3CC[C@H](Oc4ccc([N+](=O)[O-])cc4)CC3)c(=O)c2=O)cc1
Activity [1]: 50.4%
inhibition [2]: 42.8%

N#Cc1ccc(O[C@H]2CC[C@H](Nc3c(Nc4ccc(Cl)cc4)c(=O)c3=O)CC2)cc1
Activity [1]: 36.9%
inhibition [2]: 87.1%
Activity (HepG2): 96.2%

CC(C)(C)c1ccc(Nc2c(N[C@H]3CC[C@H](Oc4ccc(C(F)(F)F)cc4)CC3)c(=O)c2=O)cc1
Activity [1]: 68%
inhibition [2]: 32.6%
Activity (HepG2): 95.9%

COc1ccc(Nc2c(N[C@H]3CC[C@H](Oc4ccc(C(F)(F)F)cc4)CC3)c(=O)c2=O)cc1
Activity [1]: 28.7%
inhibition [2]: 35.6%
Activity (HepG2): 94.8%

COc1ccc(Nc2c(N[C@H]3CC[C@H](Oc4ccc(C#N)cc4)CC3)c(=O)c2=O)cc1
Activity [1]: 70.6%
inhibition [2]: 35.7%
Activity (HepG2): 88.3%

N#Cc1ccc(O[C@H]2CC[C@H](Nc3c(Nc4ccccc4)c(=O)c3=O)CC2)cc1
Activity [1]: 84.8%
inhibition [2]: 80.1%
Activity (HepG2): 90.6%

COC(=O)c1ccc(Nc2c(N[C@H]3CC[C@H](Oc4ccc(S(C)(=O)=O)cc4)CC3)c(=O)c2=O)cc1
Activity [1]: 22.3%
inhibition [2]: 40.5%
Activity (HepG2): 90.1%

COc1cccc(Nc2c(N[C@H]3CC[C@H](Oc4ccc(S(C)(=O)=O)cc4)CC3)c(=O)c2=O)c1
Activity [1]: 62.5%
inhibition [2]: 51.1%
Activity (HepG2): 100.4%

COC(=O)c1ccc(Nc2c(N[C@H]3CC[C@H](Oc4ccc(C#N)cc4)CC3)c(=O)c2=O)cc1
Activity [1]: 65.9%
inhibition [2]: 50.4%
Activity (HepG2): 99.1%

O=c1c(Nc2ccc(Cl)cc2)c(N[C@H]2CC[C@H](Oc3ccc(C(F)(F)F)cc3)CC2)c1=O
Activity [1]: 103.6%
inhibition [2]: 39.1%
Activity (HepG2): 88.4%

COc1cccc(Nc2c(N[C@H]3CC[C@H](Oc4ccc([N+](=O)[O-])cc4)CC3)c(=O)c2=O)c1
Activity [1]: 64.3%
inhibition [2]: 18%
Activity (HepG2): 87.2%

CC(C)(C)c1ccc(Nc2c(N[C@H]3CC[C@H](Oc4ccc(C#N)cc4)CC3)c(=O)c2=O)cc1
Activity [1]: 61.5%
inhibition [2]: 30.1%
Activity (HepG2): 87.4%

O=c1c(Nc2ccccc2)c(N[C@H]2CC[C@H](Oc3ccc(C(F)(F)F)cc3)CC2)c1=O
Activity [1]: 77%
inhibition [2]: 70.8%
Activity (HepG2): 93.2%

COc1ccccc1Nc1c(N[C@H]2CC[C@H](Oc3ccc(C(F)(F)F)cc3)CC2)c(=O)c1=O
Activity [1]: 30%
inhibition [2]: 21.5%
Activity (HepG2): 77.8%

COc1ccc(Nc2c(N[C@H]3CC[C@H](Oc4ccc(S(C)(=O)=O)cc4)CC3)c(=O)c2=O)cc1
Activity [1]: 34.2%
inhibition [2]: 53.3%
Activity (HepG2): 93.9%

COC(=O)c1ccc(Nc2c(N[C@H]3CC[C@H](Oc4ccc(C(F)(F)F)cc4)CC3)c(=O)c2=O)cc1
Activity [1]: 91.6%
inhibition [2]: 47.5%
Activity (HepG2): 104.7%

COc1ccc(Nc2c(N[C@H]3CC[C@H](Oc4ccc([N+](=O)[O-])cc4)CC3)c(=O)c2=O)cc1
Activity [1]: 34.3%
inhibition [2]: 57.6%
Activity (HepG2): 88.4%

O=c1c(Nc2ccc(F)cc2)c(N[C@H]2CC[C@H](Oc3ccc(C(F)(F)F)cc3)CC2)c1=O
Activity [1]: 59.3%
inhibition [2]: 40%
Activity (HepG2): 87.8%

O=c1c(Nc2ccc(F)cc2)c(N[C@H]2CC[C@H](Oc3ccc([N+](=O)[O-])cc3)CC2)c1=O
Activity [1]: 52.9%
inhibition [2]: 23.9%
Activity (HepG2): 76.7%

O=c1c(Nc2ccc(Cl)cc2)c(N[C@H]2CC[C@H](Oc3ccc([N+](=O)[O-])cc3)CC2)c1=O
Activity [1]: 49.8%
inhibition [2]: 24.3%
Activity (HepG2): 78.6%

CS(=O)(=O)c1ccc(O[C@H]2CC[C@H](Nc3c(Nc4ccc(F)cc4)c(=O)c3=O)CC2)cc1
Activity [1]: 24%
Activity (HepG2): 91.3%

COC(=O)c1ccc(Nc2c(N[C@H]3CC[C@H](Oc4ccc([N+](=O)[O-])cc4)CC3)c(=O)c2=O)cc1
Activity [1]: 26.7%
inhibition [2]: 41.7%
Activity (HepG2): 91%

N#Cc1ccc(O[C@H]2CC[C@H](Nc3c(Nc4ccc(F)cc4)c(=O)c3=O)CC2)cc1
Activity [1]: 87.4%
inhibition [2]: 46.2%
Activity (HepG2): 77%

CC(C)(C)c1ccc(Nc2c(N[C@H]3CC[C@H](Oc4ccc(S(C)(=O)=O)cc4)CC3)c(=O)c2=O)cc1
Activity [1]: 68.5%
inhibition [2]: 26.9%
Activity (HepG2): 95%

CS(=O)(=O)c1ccc(O[C@H]2CC[C@H](Nc3c(Nc4ccccc4)c(=O)c3=O)CC2)cc1
Activity [1]: 76.1%
inhibition [2]: 76.2%
Activity (HepG2): 76.2%

O=c1c(Nc2ccccc2)c(N[C@H]2CC[C@H](Oc3ccc([N+](=O)[O-])cc3)CC2)c1=O
Activity [1]: 82.7%
inhibition [2]: 59.6%
Activity (HepG2): 102.8%
